Assay [1] deals with T1, RARα (Homo sapiens, UniProt P10276).
T1 sequence (P10276 183-417 limits assumed): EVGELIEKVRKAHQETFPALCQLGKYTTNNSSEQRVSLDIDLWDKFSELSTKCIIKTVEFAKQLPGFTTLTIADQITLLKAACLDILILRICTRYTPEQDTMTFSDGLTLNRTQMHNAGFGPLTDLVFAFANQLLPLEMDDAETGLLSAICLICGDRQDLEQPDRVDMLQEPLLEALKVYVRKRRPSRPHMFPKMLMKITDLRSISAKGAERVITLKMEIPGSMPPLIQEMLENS
The assay can be described thus: chimeric receptor transactivation assay, RARα. The assay is classed as cell-based. The following applies: EC50 line of EC50/(EFFICACY)/Kd, read-out: RAR α EC50. An excerpt: (§1) Assays described below measure the ability of a compound to bind to, and/or activate various retinoid receptor subtypes. When in these assays a compound binds to a given receptor subtype and activates the transcription of a reporter gene through that subtype, then the compound is considered an agonist of that receptor subtype. […] In the below described assays the ability of the compounds to bind to RARα, RARβ, RARγ, RXRα, RXRβ and RXRγ receptors, and the ability or inability of the compounds to activate transcription of a reporter gene through these receptor subtypes can be tested.
(§2) The results obtained in this assay are expressed in EC50 numbers, as they are also in the chimeric receptor transactivation assay. The results of ligand binding assay are expressed in Kd numbers.

In assay [2] the target is T2, RARβ (Homo sapiens, UniProt P10826).
T2 sequence (P10826 183-417 limits assumed): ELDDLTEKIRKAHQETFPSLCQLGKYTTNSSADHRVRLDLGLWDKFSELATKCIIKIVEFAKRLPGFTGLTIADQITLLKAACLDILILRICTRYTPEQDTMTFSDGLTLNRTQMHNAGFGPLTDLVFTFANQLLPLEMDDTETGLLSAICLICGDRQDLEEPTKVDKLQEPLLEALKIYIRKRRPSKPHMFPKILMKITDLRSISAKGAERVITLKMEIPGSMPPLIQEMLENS
Description: chimeric receptor transactivation assay, RARβ. The following applies: EC50 line of EC50/(EFFICACY)/Kd, read-out: RAR β EC50. It is filed as cell-based.
Description: as §1, §2

The target in assay [3] is T3, RARγ (Homo sapiens, UniProt P13631).
T3 sequence (P13631 185-454 limits assumed): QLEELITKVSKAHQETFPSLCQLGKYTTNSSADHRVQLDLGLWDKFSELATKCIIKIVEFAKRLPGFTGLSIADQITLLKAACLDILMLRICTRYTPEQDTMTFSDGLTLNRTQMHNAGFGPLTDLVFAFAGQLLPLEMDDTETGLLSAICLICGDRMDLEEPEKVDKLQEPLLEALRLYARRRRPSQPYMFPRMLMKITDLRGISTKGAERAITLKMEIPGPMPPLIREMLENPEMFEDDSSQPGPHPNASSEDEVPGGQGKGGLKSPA
Description: chimeric receptor transactivation assay, RARγ. Conditions: EC50 line of EC50/(EFFICACY)/Kd, read-out: RAR γ EC50. The assay is classed as cell-based.
Description: as §1, §2

The target in assay [4] is T4, RARα (Homo sapiens, UniProt P10276).
T4 sequence (P10276 1-462): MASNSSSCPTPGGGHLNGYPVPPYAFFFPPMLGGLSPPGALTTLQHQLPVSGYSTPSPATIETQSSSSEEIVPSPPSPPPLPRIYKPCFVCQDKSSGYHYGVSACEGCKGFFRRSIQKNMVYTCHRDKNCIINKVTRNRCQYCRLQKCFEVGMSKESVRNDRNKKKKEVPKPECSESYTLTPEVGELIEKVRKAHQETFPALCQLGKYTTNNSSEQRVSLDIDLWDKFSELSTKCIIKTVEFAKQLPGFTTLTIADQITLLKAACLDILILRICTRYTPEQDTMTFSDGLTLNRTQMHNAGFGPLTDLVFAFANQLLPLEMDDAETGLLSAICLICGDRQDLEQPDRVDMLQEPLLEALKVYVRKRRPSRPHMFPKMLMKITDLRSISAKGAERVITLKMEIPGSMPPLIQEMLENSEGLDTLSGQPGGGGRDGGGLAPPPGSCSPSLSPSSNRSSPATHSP
The assay can be described thus: ligand binding assay, RARα. Conditions: Kd line of EC50/(EFFICACY)/Kd, K = thousand, read-out: RAR α Kd.
Description: as §1, §2

The target of assay [5] is T5, RARβ (Homo sapiens, UniProt P10826).
T5 sequence (P10826 1-455): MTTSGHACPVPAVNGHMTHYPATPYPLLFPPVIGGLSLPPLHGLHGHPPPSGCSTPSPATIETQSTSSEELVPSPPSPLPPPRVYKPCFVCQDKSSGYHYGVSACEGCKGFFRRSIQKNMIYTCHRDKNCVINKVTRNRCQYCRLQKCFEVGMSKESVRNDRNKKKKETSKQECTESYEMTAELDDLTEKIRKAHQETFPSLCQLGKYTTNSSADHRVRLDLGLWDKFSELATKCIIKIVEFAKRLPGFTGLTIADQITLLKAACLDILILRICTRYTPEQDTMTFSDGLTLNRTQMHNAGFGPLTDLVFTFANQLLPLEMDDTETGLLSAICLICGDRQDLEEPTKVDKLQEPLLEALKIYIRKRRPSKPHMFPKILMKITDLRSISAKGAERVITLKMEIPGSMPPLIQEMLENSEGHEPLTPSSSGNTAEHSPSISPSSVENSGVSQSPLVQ
The assay can be described thus: ligand binding assay, RARβ. Conditions: Kd line of EC50/(EFFICACY)/Kd, K = thousand, read-out: RAR β Kd.
Description: as §1, §2

For assay [6], the target named is T6, RARγ (Homo sapiens, UniProt P13631).
T6 sequence (P13631 1-454): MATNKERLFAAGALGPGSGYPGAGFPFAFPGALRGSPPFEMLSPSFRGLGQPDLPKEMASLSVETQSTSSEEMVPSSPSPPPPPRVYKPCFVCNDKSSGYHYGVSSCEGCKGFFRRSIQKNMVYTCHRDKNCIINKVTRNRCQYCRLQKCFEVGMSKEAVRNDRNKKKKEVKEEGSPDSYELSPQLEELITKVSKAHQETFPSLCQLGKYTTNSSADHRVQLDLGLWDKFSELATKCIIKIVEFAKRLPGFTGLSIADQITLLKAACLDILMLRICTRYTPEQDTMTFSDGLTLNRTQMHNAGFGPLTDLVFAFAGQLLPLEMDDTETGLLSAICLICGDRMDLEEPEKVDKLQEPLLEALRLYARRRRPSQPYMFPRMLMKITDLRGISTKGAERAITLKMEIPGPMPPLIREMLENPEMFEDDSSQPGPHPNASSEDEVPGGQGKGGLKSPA
Description: ligand binding assay, RARγ. The following applies: Kd line of EC50/(EFFICACY)/Kd, K = thousand, read-out: RAR γ Kd.
Description: as §1, §2

A word on the EC50: it is the concentration that produces a half-maximal response. What is called Kd is the constant that tells how readily two partners part at equilibrium.

Consider `CC1(C)CC(C)(C)c2cc(C#Cc3ccc(C(=O)O)cc3)ccc2O1` [Compound 201], for which the EC50 at RARα [1] is greater than 10 µM; at RARβ [2] it was greater than 10 µM; at RARγ [3] it was 0.18 µM. The Kd on RARα [4] amounted to 0.09 µM; on RARβ [5], 1.1 µM; at RARγ [6] it was 4.39 µM.

The values above are taken from US6855512B2, “Methods for identifying inhibitors of cytochrome P450RAI” (Allergan, Inc., priority 2000, dated 2005).
